Laboratory results: patent US9067897B2, “2,4-Diaminoquinazolines for spinal muscular atrophy” (Families of Spinal Muscular Atrophy, priority 2004, dated 2015)

Test system: SMN2 promoter
Assay: SMN2 promoter assay (β-lactamase reporter) in NSC-34 cells
Type: cell-based, mouse
Details: SMN2 promoter driving β-lactamase, 12 point dose curve, average of 3-6 dose curve experiments
From the text: All compounds were screened using an in vitro based SMN2 promoter assay. We used NSC-34 cells, a hybrid cell line between mouse spinal cord cells and mouse neuroblastoma cells. NSC-34 cells harbor an expression plasmid containing a 3.4 kb promoter fragment of the SMN2 gene driving β-lactamase expression.
[…] […] CCF2-AM diffuses across the plasma membrane and is converted into an active β-lactamase substrate by cytoplasmic esterase. […] The fold induction is proportional to the extent of β-lactamase produced and in turn proportional to SMN2 promoter activation for a given compound relative to vehicle (DMSO) control. […] These values are used to rank activities of the compounds and derive structure activity relationship.

Row | Compound | EC50 | EC50 (Mus musculus)
1 | 5-((1S,2R,5S)-6,6-Dimethylbieyclo[3.1.1]hept-2-ylmethoxy)quinazoline-2,4-diamine [Example 130] | < 1 µM | 
2 | 5-[1-(4-fluorophenyl)-1-methyl-ethoxy]-quinazoline-2,4-diamine [Example 101] | < 1 µM | 
3 | Cc1ccc(COc2cccc3nc(N)nc(N)c23)cc1 [Example 1, 5-(4-Methylbenzyloxy)quinazoline-2,4-diamine] |  | < 1 µM
4 | Nc1nc(N)c2c(OCc3ccc(Cl)cc3)cccc2n1 [Example 2, 5-(4-Chlorobenzyloxy)quinazoline-2,4-diamine] |  | < 1 µM
5 | Nc1nc(N)c2c(OCC(F)(F)F)cccc2n1 [Example 3, 5-(2,2,2-Trifluoroethoxy)quinazoline-2,4-diamine] |  | 1 to 5 µM
6 | Nc1nc(N)c2c(OCc3ccc(I)cc3)cccc2n1 [Example 4, 5-(4-Iodobenzyloxy)quinazoline-2,4-diamine] |  | < 1 µM
7 | Nc1nc(N)c2c(OCc3cccc(Cl)c3)cccc2n1 [Example 5, 5-(3-Chlorobenzyloxy)quinazoline-2,4-diamine] |  | < 1 µM
8 | Nc1nc(N)c2c(OCc3ccccc3Cl)cccc2n1 [Example 6, 5-(2-Chlorobenzyloxy)quinazoline-2,4-diamine] |  | < 1 µM
9 | Cc1ccccc1COc1cccc2nc(N)nc(N)c12 [Example 7, 5-(2-Methylbenzyloxy)quinazoline-2,4-diamine] |  | < 1 µM
10 | Cc1ccc(CCOc2cccc3nc(N)nc(N)c23)cc1 [Example 8, 5-(2-p-Tolylethoxy)quinazoline-2,4-diamine] |  | < 1 µM
11 | Nc1nc(N)c2c(OCCc3ccc(Cl)cc3)cccc2n1 [Example 9, 5-[2-(4-Chlorophenyl)ethoxy]quinazoline-2,4-diamine] |  | < 1 µM
12 | Cc1cccc(COc2cccc3nc(N)nc(N)c23)c1 [Example 10, 5-(3-Methylbenzyloxy)quinazoline-2,4-diamine] |  | < 1 µM
13 | Nc1nc(N)c2c(OCc3cccnc3)cccc2n1 [Example 11, 5-(Pyridin-3-ylmethoxy)quinazoline-2,4-diamine] |  | < 1 µM
14 | CC(Oc1cccc2nc(N)nc(N)c12)c1ccccc1 (centres unmarked) [Example 12, 5-(1-Phenylethoxy)quinazoline-2,4-diamine] |  | < 1 µM
15 | Nc1nc(N)c2c(OCC3CC=CCC3)cccc2n1 (centres unmarked) [Example 13, 5-(Cyclohex-3-enylmethoxy)quinazoline-2,4-diamine] |  | < 1 µM
16 | Nc1nc(N)c2c(OCC3CCC3)cccc2n1 [Example 14, 5-(Cyclobutylmethoxy)quinazoline-2,4-diamine] |  | < 1 µM
17 | COCCOc1cccc2nc(N)nc(N)c12 [Example 15, 5-(2-Methoxyethoxy)quinazoline-2,4-diamine] |  | < 1 µM
18 | Nc1nc(N)c2c(OCC3CC3)cccc2n1 [Example 16, 5-(Cyclopropylmethoxy)quinazoline-2,4-diamine] |  | < 1 µM
19 | Nc1nc(N)c2c(OCC3CCCCC3)cccc2n1 [Example 17, 5-(Cyclohexylmethoxy)quinazoline-2,4-diamine] |  | 1 to 5 µM
20 | Nc1nc(N)c2c(OCC3CCCC3)cccc2n1 [Example 18, 5-(Cyclopentylmethoxy)quinazoline-2,4-diamine] |  | < 1 µM
21 | C=CCOCCOc1cccc2nc(N)nc(N)c12 [Example 19, 5-(2-Allyloxyethoxy)quinazoline-2,4-diamine] |  | < 1 µM
22 | CN1CCCC(COc2cccc3nc(N)nc(N)c23)C1 (centres unmarked) [Example 20, 5-(1-Methylpiperidin-3-ylmethoxy)quinazoline-2,4-diamine] |  | < 1 µM
23 | Nc1nc(N)c2c(OCc3ccco3)cccc2n1 [Example 21, 5-(Furan-2-ylmethoxy)quinazoline-2,4-diamine] |  | < 1 µM
24 | Nc1nc(N)c2c(OCc3cccs3)cccc2n1 [Example 22, 5-(Thiophen-2-ylmethoxy)quinazoline-2,4-diamine] |  | < 1 µM
25 | Cc1ccc(Cc2cccc3nc(N)nc(N)c23)cc1 [Example 23, 5-(4-Methylbenzyl)quinazoline-2,4-diamine] |  | 1 to 5 µM
26 | Nc1nc(N)c2c(Cc3ccccc3)cccc2n1 [Example 24, 5-Benzylquinazoline-2,4-diamine] |  | < 1 µM
27 | Nc1nc(N)c2c(Cc3ccc(Cl)cc3)cccc2n1 [Example 25, 5-(4-Chlorobenzyl)Quinazoline-2,4-Diamine] |  | < 1 µM

Continued, values first:

Row | EC50 | EC50 (Mus musculus) | Compound
28 | < 1 µM |  | 2-(2,4-Diaminoquinazolin-5-yloxy)-1-(4-fluorophenyl)ethanol [Example 167]
29 | < 1 µM |  | 5-(3-Fluorobenzyloxy)quinazoline-2,4-diamine [Example 102]
30 |  | < 1 µM | COc1ccc(Cc2cccc3nc(N)nc(N)c23)cc1 [Example 26, 5-(4-Methoxybenzyl)Quinazoline-2,4-Diamine]
31 |  | < 1 µM | Nc1nc(N)c2c(OCCCc3ccc(Cl)cc3)cccc2n1 [Example 27, 5-[3-(4-Chlorophenyl)propoxy]quinazoline-2,4-diamine]
32 |  | < 1 µM | CC(Oc1cccc2nc(N)nc(N)c12)c1cccc(Cl)c1 (centres unmarked) [Example 28, 5-[1-(3-Chlorophenyl)ethoxy]quinazoline-2,4-diamine]
33 |  | < 1 µM | Nc1nc(N)c2c(SCc3ccc(Cl)cc3)cccc2n1 [Example 29, 5-(4-Chlorobenzylsulfanyl)quinazoline-2,4-diamine]
34 |  | < 1 µM | Cc1ccc(C#Cc2cccc3nc(N)nc(N)c23)cc1 [Example 30, 5-p-Tolylethynylquinazoline-2,4-diamine]
35 |  | 1 to 5 µM | Nc1nc(N)c2c(S(=O)(=O)c3ccc(Cl)cc3)cccc2n1 [Example 31, 5-(4-Chlorobenzenesulfonyl)quinazoline-2,4-diamine]
36 |  | 5 to 10 µM | CC(=O)Nc1nc(NC(C)=O)c2c(OCc3ccc(Cl)cc3)cccc2n1 [Example 32, N-[2-Acetylamino-5-(4-chlorobenzyloxy)quinazolin-4-yl]acetamide]
37 |  | 1 to 5 µM | CC1=NOC(COc2cccc3nc(N)nc(N)c23)C1 (centres unmarked) [Example 33, 5-(3-Methyl-4,5-dihydroisoxazol-5-ylmethoxy)quinazoline-2,4-diamine]
38 |  | < 1 µM | Nc1nc(N)c2c(OCc3ccoc3)cccc2n1 [Example 34, 5-(Furan-3-ylmethoxy)quinazoline-2,4-diamine]
39 |  | < 1 µM | Nc1nc(N)c2c(OCc3ccccc3)cccc2n1 [Example 35, 5-Benzyloxyquinazoline-2,4-diamine]
40 |  | < 1 µM | Nc1nc(N)c2c(OCc3ccccn3)cccc2n1 [Example 36, 5-(Pyridin-2-ylmethoxy)Quinazoline-2,4-diamine]
41 |  | < 1 µM | Nc1nc(N)c2c(OCCc3ccccc3)cccc2n1 [Example 37, 5-Phenethyloxyquinazoline-2,4-diamine]
42 |  | < 1 µM | CCCCCCCCOc1cccc2nc(N)nc(N)c12 [Example 38, 5-Octyloxyquinazoline-2,4-diamine]
43 |  | < 1 µM | Nc1nc(N)c2c(OC3Cc4ccccc4C3)cccc2n1 [Example 40, 5-(Indan-2-yloxy)quinazoline-2,4-diamine]

Row | EC50 | EC50 (Mus musculus) | Compound
44 |  | 5 to 10 µM | Nc1nc(N)c2c(O[C@H]3CCc4ccccc43)cccc2n1 [Example 41, 5-((S)-Indan-1-yloxy)quinazoline-2,4-diamine]
45 |  | < 1 µM | C[C@H](Oc1cccc2nc(N)nc(N)c12)c1ccccc1 [Example 42, 5-((S)-1-Phenylethoxy)quinazoline-2,4-diamine]
46 |  | < 1 µM | Nc1nc(N)c2c(COc3ccc(Cl)cc3)cccc2n1 [Example 43, 5-(4-Chlorophenoxymethyl)quinazoline-2,4-diamine]
47 |  | < 1 µM | Cc1ccc(OCc2cccc3nc(N)nc(N)c23)cc1 [Example 44, 5-p-Tolyloxymethylquinazoline-2,4-diamine]
48 |  | < 1 µM | Nc1nc(N)c2c(COc3ccc(F)cc3)cccc2n1 [Example 45, 5-(4-Fluorophenoxymethyl)quinazoline-2,4-diamine]
49 |  | < 1 µM | Nc1nc(N)c2c(Cc3ccsc3)cccc2n1 [Example 46, 5-Thiophen-3-ylmethylquinazoline-2,4-diamine]
50 |  | < 1 µM | Nc1nc(N)c2c(OCc3ccsc3)cccc2n1 [Example 47, 5-(Thiophen-3-ylmethoxy)quinazoline-2,4-diamine]
51 |  | < 1 µM | CC(Oc1cccc2nc(N)nc(N)c12)c1ccncc1 (centres unmarked) [Example 48, 5-(1-Pyridin-4-ylethoxy)quinazoline-2,4-diamine]
52 |  | < 1 µM | CC(Oc1cccc2nc(N)nc(N)c12)c1ccc(Cl)cc1 (centres unmarked) [Example 49, 5-[1-(4-Chlorophenyl)ethoxy]quinazoline-2,4-diamine]
53 |  | < 1 µM | CCC(Oc1cccc2nc(N)nc(N)c12)c1ccc(Cl)cc1 (centres unmarked) [Example 50, 5-[1-(4-Chlorophenyl)propoxy]quinazoline-2,4-diamine]
54 |  | 5 to 10 µM | CC(C)(C)C(Oc1cccc2nc(N)nc(N)c12)c1ccc(Cl)cc1 (centres unmarked) [Example 51, 5-[1-(4-Chlorophenyl)-2,2-dimethylpropoxy]quinazoline-2,4-diamine]
55 |  | < 1 µM | Nc1nc(N)c2c(OC(c3ccccc3)c3ccccc3)cccc2n1 [Example 52, 5-Benzhydryloxyquinazoline-2,4-diamine]
56 |  | < 1 µM | Cc1cc(COc2cccc3nc(N)nc(N)c23)no1 [Example 53, 5-(5-Methylisoxazol-3-ylmethoxy)quinazoline-2,4-diamine]
57 |  | < 1 µM | Nc1nc(N)c2c(OCc3ccc4c(c3)OCO4)cccc2n1 [Example 54, 5-(Benzo[1,3]dioxol-5-ylmethoxy)quinazoline-2,4-diamine]
58 |  | < 1 µM | Nc1nc(N)c2c(OCC3CCCCO3)cccc2n1 (centres unmarked) [Example 55, 5-(Tetrahydropyran-2-ylmethoxy)quinazoline-2,4-diamine]
59 |  | < 1 µM | C[C@@H](Oc1cccc2nc(N)nc(N)c12)c1ccccc1 [Example 56, 5-((R)-1-Phenylethoxy)quinazoline-2,4-diamine]
